In BindingDB's records for doi:10.1021/ml400144e (Riken, 2013):
pIC50: −log10 of the molar value.

biological target: T1, NF-kappa-B inhibitor alpha (Homo sapiens, UniProt P25963); experiment: Inhibition of TNFalpha-induced IkappaBalpha (unknown origin) phosphorylation expressed in human HeLa cells pretreated 30 mins before TNFalpha addition measured up to 120 mins by ELISA in presence of proteasome inhibitor MG-132
T1 sequence (P25963 whole entry): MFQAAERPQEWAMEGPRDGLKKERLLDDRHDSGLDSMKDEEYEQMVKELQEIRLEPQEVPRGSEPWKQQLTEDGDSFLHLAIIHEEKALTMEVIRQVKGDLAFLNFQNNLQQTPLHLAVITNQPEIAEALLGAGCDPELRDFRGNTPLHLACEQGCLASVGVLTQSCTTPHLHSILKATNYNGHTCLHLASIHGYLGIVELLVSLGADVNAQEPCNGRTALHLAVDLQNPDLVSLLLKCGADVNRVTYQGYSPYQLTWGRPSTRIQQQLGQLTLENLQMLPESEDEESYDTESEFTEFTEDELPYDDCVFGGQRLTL

How did the pIC50 turn out when CC1=C(C)C(=O)O[C@@H]([C@](C)(O)[C@H]2CC[C@@]3(O)[C@@H]4CC=C5CC=CC(=O)[C@]5(C)[C@H]4CC[C@]23C)C1 was run?
Its pIC50 is < 4.30.

With CC1=C(C)C(=O)O[C@@H]([C@](C)(O)C2=CC[C@@]3(O)[C@@H]4CC=C5CC=CC(=O)[C@]5(C)[C@H]4CC[C@]23C)C1 as the compound, how does the pIC50 read?
The pIC50 was < 4.30.

C[C@H]1C(=O)OC[C@H]1C[C@@H](O)[C@](C)(O)[C@]1(O)CC[C@@]2(O)[C@@H]3CC=C4CC=CC(=O)[C@]4(C)[C@H]3CC[C@]12C was tested. Which pIC50 did it give?
Its pIC50 is < 4.30.

With C[C@@]12C[C@H]3OC(=O)[C@]1(O)CO[C@]14O[C@@]5([C@H]2C1=O)[C@@]3(C)OC(=O)[C@@]5(O)CC[C@H]1[C@H]4C[C@@H]2O[C@@]23CC=CC(=O)[C@]13C [25-HYDROXY PHYSALIN J] as the compound, how does the pIC50 read?
Its pIC50 is < 4.30.

C[C@@]12C[C@H]3OC(=O)[C@@H]1CO[C@]14O[C@]5([C@H]2C1=O)[C@@](O)(CC[C@H]1[C@H]4C[C@H]2O[C@]24CC=CC(=O)[C@]14C)C(=O)O[C@@]35C [PHYSALIN F] was tested. Which pIC50 did it give?
Its pIC50 is 4.57.

With C[C@]12C(=O)C=CCC1=C[C@@H](O)[C@@H]1[C@@H]2CC[C@@]2(O)C(=O)O[C@@]3(C)[C@H]4C[C@]5(C)[C@@H](CO[C@@]16O[C@]23[C@H]5C6=O)C(=O)O4 as the compound, how does the pIC50 read?
The pIC50 was < 4.30.

With CC1=C(C)C(=O)O[C@@H]([C@](C)(O)[C@]2(O)CC[C@@]3(O)[C@@H]4C[C@H]5O[C@]56CC=CC(=O)[C@]6(C)[C@H]4CC[C@]23C)C1 [WITHANOLIDE E] as the compound, how does the pIC50 read?
The pIC50 was 4.74.

With CC1=C(C)C(=O)O[C@@H]([C@](C)(O)[C@]2(O)CC[C@@]3(O)[C@@H]4CC=C5CC=CC(=O)[C@]5(C)[C@H]4CC[C@]23C)C1 [WITHANOLIDE F] as the compound, how does the pIC50 read?
Its pIC50 is < 4.30.

How did the pIC50 turn out when C[C@@H]1C(=O)O[C@@H]2C[C@@]1(C)[C@@H]1C(=O)[C@]3(O)O[C@]14[C@@]2(C)OC(=O)[C@@]4(O)CC[C@H]1[C@H]3[C@H](O)C=C2CC=CC(=O)[C@@]21C [PHYSALIN O] was run?
The pIC50 was < 4.30.

C[C@@]12C[C@H]3OC(=O)[C@]1(O)CO[C@]14O[C@@]5([C@H]2C1=O)[C@@]3(C)OC(=O)[C@@]5(O)CC[C@H]1[C@H]4C[C@H]2O[C@]23CC=CC(=O)[C@]13C [25-HYDROXY PHYSALIN F] was tested. Which pIC50 did it give?
The pIC50 was 4.52.

How did the pIC50 turn out when C=C1C(=O)O[C@@H]2C[C@@]1(C)[C@@H]1C(=O)[C@]3(O)O[C@]14[C@@]2(C)OC(=O)[C@@]4(O)CC[C@H]1[C@H]3CC=C2CC=CC(=O)[C@@]21C was run?
The pIC50 was 4.58.

With C[C@]12C(=O)C=CCC1=CC[C@@H]1[C@@H]2CC[C@]2(O)C(=O)O[C@@]3(C)[C@H]4C[C@]5(C)[C@@H](CO[C@@]16O[C@@]32[C@H]5C6=O)C(=O)O4 [NSC-287088] as the compound, how does the pIC50 read?
The pIC50 was 4.43.

With C[C@]12C(=O)C=CCC1=CC[C@@H]1[C@@H]2CC[C@]2(O)C(=O)O[C@@]3(C)[C@H]4C[C@@](C)([C@@H]5C(=O)[C@]1(O)O[C@@]532)[C@](C)(O)C(=O)O4 as the compound, how does the pIC50 read?
Its pIC50 is < 4.30.

C=C1C(=O)O[C@@H]2C[C@@]1(C)[C@@H]1C(=O)[C@]3(O)O[C@]14[C@@]2(C)OC(=O)[C@@]4(O)CC[C@H]1[C@H]3[C@H](O)C=C2CC=CC(=O)[C@@]21C [PHYSALIN A] was tested. Which pIC50 did it give?
Its pIC50 is < 4.30.

With C[C@@]12C[C@H]3OC(=O)[C@@H]1CO[C@@]14O[C@]5(C2C1=O)[C@@](O)(CC[C@H]1[C@H]4C[C@@H]2O[C@@]24CC=CC(=O)[C@]14C)C(=O)O[C@@]35C [PHYSALIN J] as the compound, how does the pIC50 read?
The pIC50 was < 4.30.

How did the pIC50 turn out when C[C@H]1C(=O)OC[C@H]1C[C@@H](O)[C@](C)(O)[C@@]1(O)CC[C@@]2(O)[C@@H]3CC=C4CC=CC(=O)[C@]4(C)[C@H]3CC[C@]12C was run?
Its pIC50 is < 4.30.
